In a compilation of properties of binary mixtures (doi:10.1021/acs.iecr.6b02875):

Experiment: xn = mol fraction of the nth substance listed
Conditions: 101 kPa; for electrical conductivity: 298.15 K

COCCCn1cc[n+](C)c1.O=S(=O)([N-]S(=O)(=O)C(F)(F)F)C(F)(F)F + O
x1 = 0.8318
Conditions | viscosity [mPa·s]
293 K | 49.6
298.1 K | 39.7
303 K | 32.1
313 K | 22.1
323 K | 15.9
333 K | 11.8
343 K | 9.1
353 K | 7.1

Conditions | electrical conductivity [S/m]
x1 = 0.8318 | 0.44

COC[n+]1ccn(C)c1.O=S(=O)([N-]S(=O)(=O)C(F)(F)F)C(F)(F)F + O
x1 = 0.8281
Conditions | viscosity [mPa·s]
293 K | 48.3
298.1 K | 38.4
303 K | 31.1
313 K | 21.4
323 K | 15.4
333 K | 11.4
343 K | 8.8
353 K | 7

Conditions | electrical conductivity [S/m]
x1 = 0.8281 | 0.594

CCOCC[n+]1ccn(C)c1.O=S(=O)([N-]S(=O)(=O)C(F)(F)F)C(F)(F)F + O
x1 = 0.8421
Conditions | viscosity [mPa·s]
293 K | 42.4
303 K | 27.8
313 K | 19.5
323 K | 14.2
333 K | 10.7
343 K | 8.3
353 K | 6.5

Conditions | electrical conductivity [S/m]
x1 = 0.8421 | 0.499

CCCOCCn1cc[n+](C)c1.O=S(=O)([N-]S(=O)(=O)C(F)(F)F)C(F)(F)F + O
x1 = 0.8308
Conditions | viscosity [mPa·s]
293 K | 48
303 K | 31.6
313 K | 21.9
323 K | 15.9
333 K | 12
343 K | 9.2
353 K | 7.3

Conditions | electrical conductivity [S/m]
x1 = 0.8308 | 0.404

CCOCn1cc[n+](C)c1.O=S(=O)([N-]S(=O)(=O)C(F)(F)F)C(F)(F)F + O
x1 = 0.8413
Conditions | viscosity [mPa·s]
283 K | 81.6
293 K | 48.9
298.1 K | 38.8
303 K | 31.4
313 K | 21.6
323 K | 15.7
343 K | 9.1
353 K | 7.2

Conditions | electrical conductivity [S/m]
x1 = 0.8413 | 0.504

COC[n+]1ccccc1.O=S(=O)([N-]S(=O)(=O)C(F)(F)F)C(F)(F)F + O
x1 = 0.8484
Conditions | viscosity [mPa·s]
283 K | 75.6
293 K | 46.3
313 K | 21.7
323 K | 15.8
343 K | 9.4
353 K | 7.5

COCC[n+]1ccn(C)c1.O=S(=O)([N-]S(=O)(=O)C(F)(F)F)C(F)(F)F + O
x1 = 0.838
Conditions | viscosity [mPa·s]
293 K | 41.5
298.1 K | 33.3
303 K | 27.4
313 K | 19.4
323 K | 14.2
333 K | 10.7
343 K | 8.4
353 K | 6.7
